Assay results taken from patent US20080253960A1, “Lipoprotein-Based Nanoplatforms” (The Trustees of the University of Pennsylvania Center for …, priority 2004, published 2008).

Experiments:
HepG2 tumor cells [1] = assay: laser scanning confocal microscopy of r-(Pyro-CE)-LDL uptake; type: cell-based, human; details: 20 μg/mL r-(Pyro-CE)-LDL, or same amount of Pyro-CE without reconstitution into LDL
Method: To visualize LDLR-mediated internalization of these NIRF/PDT agents into tumor cells, we performed laser scanning confocal microscopy studies on r-(Pyro-CE)-LDL in HepG2 tumor cells. Four sets of experiments were performed on a Leica TCS SPII laser scanning confocal microscope (Heidelberg, Germany). […] In a control experiment, HepG2 cells were incubated with native LDL but without the photosensitizer at 37° C. for 3 h to determine any possible background fluorescence. […] To determine the specificity of this LDL based photosensitizer toward LDL receptors, HepG2 cells were incubated with either a 25-fold excess of unlabeled LDL in addition to the 20 μg/mL r-(Pyro-CE)-LDL or with the same amount of Pyro-CE but without reconstitution of this agent into LDL.

HepG2 tumor cells [2] = assay: confocal microscopy of LDLR-specific uptake of r-SiPcBOA-LDL; type: cell-based, human; details: same amount of dye alone as in r-SiPcBOA-LDL
Method: Confocal Microscopy Studies: For confocal microscopy studies, HepG2 cells were grown in 4-well Lab-Tek chamber slides (Naperville, Ill.) at a density of 40,000 cells/well. Experiments were started, after two quick washes with pre-incubation medium (medium with 0.8% (w/v) BSA instead of FBS), by the addition of pre-incubation medium containing the indicated amounts of r-SiPcBOA-LDL/AcLDL and/or unlabeled LDL. After a 4 h incubation at 37° C., the cells were washed three times with ice-cold PBS and fixed for 15 minutes with 3% formaldehyde in PBS at room temperature. Then the chamber slides were mounted and sealed for confocal microscopy analysis. Confocal microscopy was performed with a Leica TCS SPII laser scanning confocal microscope (Heidelberg, Germany). Filter settings were 633 nm for excitation and 638-800 nm for emission. Confocal Microscopy Studies of the LDLR-Specific Uptake: To visualize LDLR-mediated internalization of r-SiPcBOA-LDL, we performed laser scanning confocal microscopy studies on HepG2 tumor cells. […] To determine the specificity of this r-SiPcBOA-LDL toward LDLR, three sets of control experiments were performed.

Substance | fluorescence signal (confocal) (HepG2 tumor cells [1]) | fluorescence signal (confocal) (HepG2 tumor cells [2])
pyropheophorbide cholesterol oleate [Pyro-CE] | No fluorescence | –
tetra-t-butyl silicon phthalocyanine bisoleate [(tBu)4SiPcBOA] | – | did not lead to any observable fluorescence
